Patent US6346514B1, “Pharmaceutical lysine-containing polypeptide compositions and methods of use thereof” (priority 1991, dated 2002)

System: Vibrio anguillarum (V-775)
Assay: Vaccine augmentation in Rainbow trout challenged with Vibrio anguillarum
Assay type: in vivo, Rainbow trout (Oncorhynchus mykiss)
Protocol: In the present investigation, fish were obtained and inoculated at approximately 12 weeks of age. Immunologic studies were conducted under a variety of conditions in which fish were provided with vaccination to observe vaccine augmentation, and under conditions in which no vaccine was provided prior to inoculum. The effects of exposure time, HM897 concentration, and vaccine on mortalities relative to control studies in which no HM897 was administered provided data for analysis of the immunologic effect of HM897.
The study was conducted using Rainbow trout (Oncorhynchus mykiss) to compare the effects of a standard fish vaccine to the protection provided by varying dosages of HM897. The fish were challenged with Vibrio anguillarum (V-775), a bacteria that causes fatal vibriosis, typically 3-5 days following pathogen exposure.
Rainbow Trout (Oncorhynchus mykiss) weighing approximately 5 grams were used as test organisms. The fish were obtained from Cran-Mar Trout Farm. Upon arrival at BRL's facility, the fish were quarantined for a minimum of seven days, and observed to be disease free. During this period, the fish were held at a stable temperature. There was consistent water quality in an aerated flow-through system with a flow rate of approximately 30 liters per hour. During the holding period the fish were observed daily for signs of disease, stress, injury, hemorrhaging, and external parasite. The fish were not fed 48 hours prior to testing.
The Rainbow trout used in this study weighed an average of 5 grams. The fish were divided into 21 groups with 50 fish per group. Each group of 50 fish was maintained in two 10-gallon tanks (25 fish/tank).
The level of bacterial dilution to achieve a LD75 (the level designed to kill 75% of the non-vaccinated fish) was a dilution of 10^−4. to 10^−5. The challenge bacteria were grown for 48 hours at 25° C in trypticase soy broth. The 10^−4 dilution was made from this broth in 0.9% saline. All fish excepting the control group that received no bacterial challenge were inoculated 7 days after exposure to HM897.
Rainbow trout hatchling were exposed to the concentration of HM897 as described below. Some of the fish had been vaccinated while others had received no vaccination. In each tank, fifty vaccinated or unvaccinated fish were exposed for a period of 5 minutes to HM897, and then removed and placed in an assigned tank according to the group number.
The positive control group (III) received a vaccine made from Vibrio anguillarum (V-775). This was made through a fermentation and extraction process in the BRL laboratory facility and is equivalent to the aquaculture industry standard vibrio vaccine.
All groups scheduled to be challenged with the Vibrio anguillarum bacterium were challenged at the LD75 dilution on day seven of the experiment by i.p. injection of 0.1 mL of 10^−4 bacterial dilution. The fish were observed daily for mortalities.

Thr-Ala-Glu-Glu-Lys (TAEEK) [HM897]
Cumulative Mortalities (Day 1, Group IVa: vaccinated, HM897 2.5 μg/38 liters): 0
Cumulative Mortalities (Day 1, Group IVb: vaccinated, HM897 10 μg/38 liters): 0
Cumulative Mortalities (Day 1, Group IVc: vaccinated, HM897 50 μg/38 liters): 0
Cumulative Mortalities (Day 1, Group IVd: vaccinated, HM897 100 μg/38 liters): 0
Cumulative Mortalities (Day 1, Group Va: not vaccinated, HM897 10 μg/38 liters): 0
Cumulative Mortalities (Day 1, Group Vb: not vaccinated, HM897 25 μg/38 liters): 0
Cumulative Mortalities (Day 1, Group Vc: not vaccinated, HM897 75 μg/38 liters): 0
Cumulative Mortalities (Day 1, Group Vd: not vaccinated, HM897 150 μg/38 liters): 0
Cumulative Mortalities (Day 2.10, Group IVa: vaccinated, HM897 2.5 μg/38 liters): 0
Cumulative Mortalities (Day 2.10, Group IVb: vaccinated, HM897 10 μg/38 liters): 0
Cumulative Mortalities (Day 2.10, Group IVc: vaccinated, HM897 50 μg/38 liters): 0
Cumulative Mortalities (Day 2.10, Group IVd: vaccinated, HM897 100 μg/38 liters): 0
Cumulative Mortalities (Day 2.10, Group Va: not vaccinated, HM897 10 μg/38 liters): 0
Cumulative Mortalities (Day 2.10, Group Vb: not vaccinated, HM897 25 μg/38 liters): 0
Cumulative Mortalities (Day 2.10, Group Vc: not vaccinated, HM897 75 μg/38 liters): 0
Cumulative Mortalities (Day 2.10, Group Vd: not vaccinated, HM897 150 μg/38 liters): 0
Cumulative Mortalities (Day 11, Group IVa: vaccinated, HM897 2.5 μg/38 liters): 0
Cumulative Mortalities (Day 11, Group IVb: vaccinated, HM897 10 μg/38 liters): 0
Cumulative Mortalities (Day 11, Group IVc: vaccinated, HM897 50 μg/38 liters): 0
Cumulative Mortalities (Day 11, Group IVd: vaccinated, HM897 100 μg/38 liters): 0
Cumulative Mortalities (Day 11, Group Va: not vaccinated, HM897 10 μg/38 liters): 0
Cumulative Mortalities (Day 11, Group Vb: not vaccinated, HM897 25 μg/38 liters): 0
Cumulative Mortalities (Day 11, Group Vc: not vaccinated, HM897 75 μg/38 liters): 1
Cumulative Mortalities (Day 11, Group Vd: not vaccinated, HM897 150 μg/38 liters): 0
Cumulative Mortalities (Day 12, Group IVa: vaccinated, HM897 2.5 μg/38 liters): 0
Cumulative Mortalities (Day 12, Group IVb: vaccinated, HM897 10 μg/38 liters): 0
Cumulative Mortalities (Day 12, Group IVc: vaccinated, HM897 50 μg/38 liters): 0
Cumulative Mortalities (Day 12, Group IVd: vaccinated, HM897 100 μg/38 liters): 0
Cumulative Mortalities (Day 12, Group Va: not vaccinated, HM897 10 μg/38 liters): 0
Cumulative Mortalities (Day 12, Group Vb: not vaccinated, HM897 25 μg/38 liters): 0
Cumulative Mortalities (Day 12, Group Vc: not vaccinated, HM897 75 μg/38 liters): 1
Cumulative Mortalities (Day 12, Group Vd: not vaccinated, HM897 150 μg/38 liters): 0
Cumulative Mortalities (Day 13, Group IVa: vaccinated, HM897 2.5 μg/38 liters): 1
Cumulative Mortalities (Day 13, Group IVb: vaccinated, HM897 10 μg/38 liters): 1
Cumulative Mortalities (Day 13, Group IVc: vaccinated, HM897 50 μg/38 liters): 1
Cumulative Mortalities (Day 13, Group IVd: vaccinated, HM897 100 μg/38 liters): 8
Cumulative Mortalities (Day 13, Group Va: not vaccinated, HM897 10 μg/38 liters): 16
Cumulative Mortalities (Day 13, Group Vb: not vaccinated, HM897 25 μg/38 liters): 18
Cumulative Mortalities (Day 13, Group Vc: not vaccinated, HM897 75 μg/38 liters): 21
Cumulative Mortalities (Day 13, Group Vd: not vaccinated, HM897 150 μg/38 liters): 14
Cumulative Mortalities (Day 14, Group IVa: vaccinated, HM897 2.5 μg/38 liters): 7
Cumulative Mortalities (Day 14, Group IVb: vaccinated, HM897 10 μg/38 liters): 5
Cumulative Mortalities (Day 14, Group IVc: vaccinated, HM897 50 μg/38 liters): 5
Cumulative Mortalities (Day 14, Group IVd: vaccinated, HM897 100 μg/38 liters): 15
Cumulative Mortalities (Day 14, Group Va: not vaccinated, HM897 10 μg/38 liters): 24
Cumulative Mortalities (Day 14, Group Vb: not vaccinated, HM897 25 μg/38 liters): 25
Cumulative Mortalities (Day 14, Group Vc: not vaccinated, HM897 75 μg/38 liters): 29
Cumulative Mortalities (Day 15, Group IVa: vaccinated, HM897 2.5 μg/38 liters): 10
Cumulative Mortalities (Day 15, Group IVb: vaccinated, HM897 10 μg/38 liters): 6
Cumulative Mortalities (Day 15, Group IVc: vaccinated, HM897 50 μg/38 liters): 10
Cumulative Mortalities (Day 15, Group IVd: vaccinated, HM897 100 μg/38 liters): 16
Cumulative Mortalities (Day 15, Group Va: not vaccinated, HM897 10 μg/38 liters): 28
Cumulative Mortalities (Day 15, Group Vb: not vaccinated, HM897 25 μg/38 liters): 32
Cumulative Mortalities (Day 15, Group Vc: not vaccinated, HM897 75 μg/38 liters): 32
Cumulative Mortalities (Day 16, Group IVa: vaccinated, HM897 2.5 μg/38 liters): 13
Cumulative Mortalities (Day 16, Group IVb: vaccinated, HM897 10 μg/38 liters): 6
Cumulative Mortalities (Day 16, Group IVc: vaccinated, HM897 50 μg/38 liters): 10
Cumulative Mortalities (Day 16, Group IVd: vaccinated, HM897 100 μg/38 liters): 17
Cumulative Mortalities (Day 16, Group Va: not vaccinated, HM897 10 μg/38 liters): 33
Cumulative Mortalities (Day 16, Group Vb: not vaccinated, HM897 25 μg/38 liters): 33
Cumulative Mortalities (Day 16, Group Vc: not vaccinated, HM897 75 μg/38 liters): 33
Cumulative Mortalities (Day 17, Group IVa: vaccinated, HM897 2.5 μg/38 liters): 13
Cumulative Mortalities (Day 17, Group IVb: vaccinated, HM897 10 μg/38 liters): 7
Cumulative Mortalities (Day 17, Group IVc: vaccinated, HM897 50 μg/38 liters): 10
